Measurements from patent publication US12564193B2, “Isoxazoline-substituted benzamide derivative, and preparation method therefor and use thereof” (SHANDONG UNITED PESTICIDE INDUSTRY CO., LTD., priority 2020, dated 2026).

tested on: Cnaphalocrocis medinalis; experiment: Insecticidal activity, spray on pre-infested radish plants: Cnaphalocrocis medinalis; type: in vivo; settings: 144 h, read-out: fatality rate on Cnaphalocrocis medinalis
Procedure: (§1) For determination of insecticidal activity, the test method was as follows: a test solution with a desired concentration was prepared by dissolving a test compound sample in a suitable solvent (the kind of solvent was such as acetone, methanol, DMSO, etc., and was selected according to its dissolving ability for the sample). The test cell was composed of a small open container with 12-15 day old radish plants inside. The plants were pre-infested by placing 30-40 pests located on one leaf cut from the cultivated plant on one leaf of the test plant (leaf cutting method). As the leaves dehydrated, the pests moved on the test plants. After the pre-infesting, the soil of the test cells was covered with a layer of sand.
(§2) The test method was as follows: the test was repeated for three times, and after spraying the formulated test compound, each test unit was allowed to dry for 1 hour, and then a black mesh cover was placed at the top. The test units were kept in a growth chamber at 25° C. and 70% relative humidity for 6 days. The mortality (fatality rate) of the insects was then visually assessed for each test unit, and the fatality rate was calculated as follows: […]

SMILES	pest or weed control at 0.1 ppm	pest or weed control at 1 ppm	pest or weed control at 10 ppm
Cc1cc(C2=NOC(c3cc(Cl)c(F)c(Cl)c3)(C(F)(F)F)C2)ccc1C(=O)NCc1cnccc1C(F)(F)F (stereo not drawn) [Compound 3]	> 80%	> 80%	> 80%
Cc1cc(C2=NOC(c3cc(Cl)c(F)c(Cl)c3)(C(F)(F)F)C2)ccc1C(=O)NCc1cnc(Cl)cc1Cl (stereo not drawn) [Compound 7]	> 80%	> 80%	> 80%

tested on: Chilo suppressalis; experiment: Insecticidal activity, spray on pre-infested radish plants: Chilo suppressalis; type: in vivo; settings: Chilo suppressalis, 144 h, read-out: fatality rate on Chilo suppressalis
Procedure: as §1, §2

SMILES	pest or weed control at 0.1 ppm	pest or weed control at 1 ppm	pest or weed control at 10 ppm
Cc1cc(C2=NOC(c3cc(Cl)c(F)c(Cl)c3)(C(F)(F)F)C2)ccc1C(=O)NCc1cnccc1C(F)(F)F (stereo not drawn) [Compound 3]	> 80%	> 80%	> 80%
Cc1cc(C2=NOC(c3cc(Cl)c(F)c(Cl)c3)(C(F)(F)F)C2)ccc1C(=O)NCc1cnc(Cl)cc1Cl (stereo not drawn) [Compound 7]	> 80%	> 80%	> 80%

tested on: Frankliniella occidentalis; experiment: Insecticidal activity, spray on pre-infested radish plants: Frankliniella occidentalis; type: in vivo; settings: Frankliniella occidentalis, 144 h, read-out: fatality rate on Frankliniella occidentalis
Procedure: as §1
The test method was as follows: the test was repeated for three times, and after spraying the formulated test compound, each test unit was allowed to dry for 1 hour, and then a black mesh cover was placed at the top. The test units were kept in a growth chamber at 25° C. and 70% relative humidity for 6 days. The mortality (fatality rate) of the insects was then visually assessed for each test unit, and the fatality rate was calculated as follows:
[formula] (1) Test Results for the Control of Frankliniella occidentalis by Exemplary Example Compounds

SMILES	pest or weed control at 1 ppm	pest or weed control at 10 ppm	pest or weed control at 25 ppm
Cc1cc(C2=NOC(c3cc(Cl)c(F)c(Cl)c3)(C(F)(F)F)C2)ccc1C(=O)NCc1cnccc1C(F)(F)F (stereo not drawn) [Compound 3]	> 80%	> 80%	> 80%
Cc1cc(C2=NOC(c3cc(Cl)c(F)c(Cl)c3)(C(F)(F)F)C2)ccc1C(=O)NCc1cnc(Cl)cc1Cl (stereo not drawn) [Compound 7]	> 80%	> 80%	> 80%

tested on: Spodoptera litura; experiment: Insecticidal activity, spray on pre-infested radish plants: Spodoptera litura; type: in vivo; settings: 144 h, read-out: fatality rate on Spodoptera litura
Procedure: as §1, §2

SMILES	pest or weed control at 0.1 ppm	pest or weed control at 1 ppm	pest or weed control at 10 ppm
Cc1cc(C2=NOC(c3cc(Cl)c(F)c(Cl)c3)(C(F)(F)F)C2)ccc1C(=O)NCc1cnccc1C(F)(F)F (stereo not drawn) [Compound 3]	> 80%	> 80%	> 80%
Cc1cc(C2=NOC(c3cc(Cl)c(F)c(Cl)c3)(C(F)(F)F)C2)ccc1C(=O)NCc1cnc(Cl)cc1Cl (stereo not drawn) [Compound 7]	> 80%	> 80%	> 80%

tested on: Plutella xylostella; experiment: Insecticidal activity, spray on pre-infested radish plants: Plutella xylostella; type: in vivo; settings: Plutella xylostella, 144 h, read-out: fatality rate on Plutella xylostella
Procedure: as §1, §2

SMILES	pest or weed control at 0.1 ppm	pest or weed control at 1 ppm	pest or weed control at 10 ppm
Cc1cc(C2=NOC(c3cc(Cl)c(F)c(Cl)c3)(C(F)(F)F)C2)ccc1C(=O)NCc1cnccc1C(F)(F)F (stereo not drawn) [Compound 3]	> 80%	> 80%	> 80%
Cc1cc(C2=NOC(c3cc(Cl)c(F)c(Cl)c3)(C(F)(F)F)C2)ccc1C(=O)NCc1cnc(Cl)cc1Cl (stereo not drawn) [Compound 7]	> 80%	> 80%	> 80%

tested on: Pieris rapae; experiment: Insecticidal activity, spray on pre-infested radish plants: Pieris rapae; type: in vivo; settings: 144 h, read-out: fatality rate on Pieris rapae
Procedure: as §1, §2

SMILES	pest or weed control at 0.1 ppm	pest or weed control at 1 ppm	pest or weed control at 10 ppm
Cc1cc(C2=NOC(c3cc(Cl)c(F)c(Cl)c3)(C(F)(F)F)C2)ccc1C(=O)NCc1cnccc1C(F)(F)F (stereo not drawn) [Compound 3]	> 80%	> 80%	> 80%
Cc1cc(C2=NOC(c3cc(Cl)c(F)c(Cl)c3)(C(F)(F)F)C2)ccc1C(=O)NCc1cnc(Cl)cc1Cl (stereo not drawn) [Compound 7]	> 80%	> 80%	> 80%

tested on: Mythimna separata; experiment: Insecticidal activity, spray on pre-infested radish plants: Mythimna separata; type: in vivo; settings: Mythimna separata, 144 h, read-out: fatality rate on Mythimna separata
Procedure: as §1, §2

SMILES	pest or weed control at 0.1 ppm	pest or weed control at 1 ppm	pest or weed control at 10 ppm
Cc1cc(C2=NOC(c3cc(Cl)c(F)c(Cl)c3)(C(F)(F)F)C2)ccc1C(=O)NCc1cnccc1C(F)(F)F (stereo not drawn) [Compound 3]	> 80%	> 80%	> 80%
Cc1cc(C2=NOC(c3cc(Cl)c(F)c(Cl)c3)(C(F)(F)F)C2)ccc1C(=O)NCc1cnc(Cl)cc1Cl (stereo not drawn) [Compound 7]	> 80%	> 80%	> 80%

tested on: Tetranychus cinnabarinus; experiment: Acaricidal activity, slide immersion of female adult mites: Tetranychus cinnabarinus; type: in vivo; settings: 24 h, read-out: fatality rate on Tetranychus cinnabarinus
Procedure: The test method was as follows: a test solution with a desired concentration was prepared by dissolving a test compound sample in a suitable solvent (the kind of solvent was such as acetone, methanol, DMSO, etc., and was selected according to its dissolving ability for the sample). A double-sided adhesive tape was cut into 2-3 cm long pieces, the pieces were attached to one end of a microscope slide, paper pieces on the adhesive tape were removed using tweezers, female adult mites which were consistent in size, bright in body color and lively in action were selected using a zero-size brush pen, the backs of the female adult mites were adhered to the double-sided adhesive tape (note: the adhesion should not cover mite feet, mite whiskers and mouthparts), with 4 rows of mites adhered to each piece and 10 heads of the mites adhered to each row.
One end of the glass slide with the mites was immersed into a drug liquid, with slightly shaking for 5 seconds, and then the slide was taken out. The excess drug liquid around the mite body and is surroundings is quickly sucked off using absorbent paper. The slide was placed in the biochemical incubator described above, and the results were checked by using binoculars after 24 hours. The mites were slightly touched by using a brush pen, the mites with immobility in feet were considered to be dead, and the fatality rate was calculated. The fatality rate was calculated as follows: […]

SMILES	pest or weed control at 1 ppm	pest or weed control at 10 ppm	pest or weed control at 25 ppm
Cc1cc(C2=NOC(c3cc(Cl)c(F)c(Cl)c3)(C(F)(F)F)C2)ccc1C(=O)NCc1cnccc1C(F)(F)F (stereo not drawn) [Compound 3]	> 80%	> 80%	> 80%
Cc1cc(C2=NOC(c3cc(Cl)c(F)c(Cl)c3)(C(F)(F)F)C2)ccc1C(=O)NCc1cnc(Cl)cc1Cl (stereo not drawn) [Compound 7]	> 80%	> 80%	> 80%
